Measured values from PubChem BioAssay AID504898 (Southern Research Specialized Biocontainment Screening …, 2011).
pIC50: −log10 of the molar value. The source made the active and inactive calls. No rule for the calls is given here.

How the values were obtained:
[1] = Confirmatory M tuberculosis H37Rv growth inhibition assay in glycerol free medium (AID 504898); conditions: M. tuberculosis H37Rv growth inhibition, glycerol-free medium; at 100 µM (top of the series)
[2] = tested on: M. tuberculosis H37Rv growth inhibition, glycerol-free medium; experiment: as above; conditions: for pIC50: measured here: M. tuberculosis growth IC50

Row | SMILES | growth inhibition [1] | pIC50 [2] | IC90 [2]
1 | O=c1[nH]c(=S)[nH]c2ccccc12 | -2.86% (inactive) |  | 
2 | COc1ccc(NC(=O)CSc2nc3ccccc3c(=O)[nH]2)cc1 | 1.8% (inactive) |  | 
3 | Cc1cc(Br)ccc1NC(=O)c1cnc(N2CCN(c3ccccn3)CC2)c2ccccc12 |  | 5.36 | 
4 | CC(C)CCNC(=O)CSc1nc2c(c(=O)[nH]1)CCC2 |  | 5.86 | 2.02 µM
5 | O=C(CSc1ncccn1)NC1CCCCC1 | -3.37% (inactive) |  | 
6 | CC(C)N=c1cc2n(-c3ccc(Cl)cc3)c3ccccc3nc-2cc1Nc1ccc(Cl)cc1 |  | 7.17 | 0.36 µM
7 | Cc1nc(SCc2ccccc2Cl)[nH]c(=O)c1C | -0.81% (inactive) |  | 
8 | Cc1ccc(C(=O)N/N=C(/CC(=O)c2cccs2)C(F)(F)F)cc1 |  | 5.77 | 2.9 µM
9 | Nc1c(C(=O)NC2CCCCC2)nsc1C(=O)OCC(=O)NC1CCCCC1 |  | 5.18 | 52.6 µM
10 | CN(C)C(=O)CSc1nc2ccccc2c(=O)[nH]1 | 4.4% (inactive) |  | 
11 | O=C(CSc1nc2ccccc2c(=O)[nH]1)N1CCOCC1 | 3.26% (inactive) |  | 
12 | CCOc1ccc(-c2cc(C)[n+](CCc3ccc(OC)c(OC)c3)c(-c3ccc(OCC)cc3)c2)cc1 |  | 6.14 | 1.45 µM
13 | CC(C)NC(=O)CSc1nc2ccccc2c(=O)[nH]1 |  | 5.01 | 15 µM
14 | O=C(CSc1ccccn1)NC1CCCCC1 | 13.4% (inactive) |  | 
15 | O=C(CSc1nc2c(c(=O)[nH]1)CCCC2)NC1CCCCC1 |  | > 7.24 | < 0.11 µM
16 | Cc1cccc(-c2oc3ccc(-c4ccc5c(c4)OCO5)cc3c2C#Cc2cncn2C)c1 |  | 5.58 | 3.02 µM
17 | Cc1[nH]c2ccccc2c1C(=O)COC(=O)c1ccc([N+](=O)[O-])s1 |  | < 4.17 | 
18 | COC(=O)C(Nc1nc(SCC(=O)NC2CCCCC2)nc2ccccc12)c1ccccc1 (stereo not given) | -4.58% (inactive) |  | 
19 | O=C(CSc1nc2ccccc2c(=O)[nH]1)NC1CCCC1 |  | 6.57 | 0.63 µM
20 | CCC(Sc1nc2ccccc2c(=O)[nH]1)C(=O)NC1CCCCC1 (stereo not given) | -0.87% (inactive) |  | 
21 | Cn1c(SCC(=O)NC2CCCCC2)nc2ccccc2c1=O | -3.28% (inactive) |  | 
22 | Cc1c[nH]c(=S)[nH]c1=O | -1.93% (inactive) |  | 
23 | COC(=O)c1ccc(CNc2c(N3CCCC3)c(=O)c2=O)cc1 | 0.74% (inactive) |  | 

Row | SMILES | growth inhibition [1] | pIC50 [2] | IC90 [2]
24 | CC1CCN(C(=O)CSc2nc3ccccc3c(=O)[nH]2)CC1 | -0.8% (inactive) |  | 
25 | Cc1[nH]c(=S)[nH]c(=O)c1C | -2.88% (inactive) |  | 
26 | COc1c(N2CCNC(C)C2)c(F)cc2c(=O)c(C(=O)O)cn(C3CC3)c12 (stereo not given) |  | 6.96 | 0.14 µM
27 | CC(C)CCNC(=O)CSc1nc2ccccc2c(=O)[nH]1 |  | > 6.96 | 0.28 µM
28 | CCCc1cc(C(N)=S)ccn1 |  | 5.02 | 
29 | Cc1ccc(NC(=O)CSc2nc3ccccc3c(=O)[nH]2)cc1Cl | -2.52% (inactive) |  | 
30 | COc1cccc(NC(=O)CSc2nc3c(c(=O)[nH]2)CCC3)c1 | -9.1% (inactive) |  | 
31 | COC(=O)C(C)Oc1ccc(Cc2ncc(C(F)(F)F)cc2Cl)cc1 (stereo not given) |  | 5.44 | 5.62 µM
32 | O=C(CSc1nc2ccccc2c(=O)[nH]1)NCc1ccc(Cl)cc1 |  | 5.96 | 1.6 µM
33 | Cc1cc(C)n2nc(N)c(N=Nc3ccccc3)c2n1 |  | 5.37 | 5.84 µM
34 | NC(=O)CSc1nc2ccccc2c(=O)[nH]1 | 3.58% (inactive) |  | 
35 | Cc1nc(SCC(=O)NC2CCCCC2)[nH]c(=O)c1C |  | 6.89 | 9.53 µM
36 | Cc1nc(SCC(=O)NCCC(C)C)[nH]c(=O)c1C |  | 5.03 | 13.6 µM
37 | COc1cccc(NC(=O)CSc2nc3ccccc3c(=O)[nH]2)c1 | -2.5% (inactive) |  | 
38 | CN[C@@H]1[C@H](O[C@H]2[C@H](O[C@H]3[C@H](O)[C@@H](O)[C@H](N=C(N)N)[C@@H](O)[C@@H]3N=C(N)N)O[C@@H](C)[C@]2(O)C=O)O[C@@H](CO)[C@H](O)[C@H]1O |  | 6.90 | 0.18 µM
39 | c1ccc(/N=C2\N=C(Nc3ccccn3)c3ccccc32)nc1 |  | 5.75 | 2.52 µM
40 | Cc1cccc(/C=C/C(=O)c2ccc([N+](=O)[O-])o2)c1 |  | 5.83 | 2.23 µM
41 | O=C(CSc1nc2ccccc2c(=O)[nH]1)NC1CCCCC1 |  | 6.44 | 0.51 µM
42 | CNC(=O)CSc1nc2ccccc2c(=O)[nH]1 |  | 4.11 | 
43 | O=C(CSc1nc2c(c(=O)[nH]1)CCC2)NC1CCCCC1 |  | > 7.19 | < 0.1 µM
44 | CN1CCC(NC(=O)CSc2nc3ccccc3c(=O)[nH]2)CC1 | -4% (inactive) |  | 
45 | Cc1nc(SCC(=O)N(C)c2ccccc2)[nH]c(=O)c1C | -9.33% (inactive) |  | 
46 | Cc1cc(=O)[nH]c(SCC(=O)NC2CCCCC2)n1 | -3.3% (inactive) |  | 

Row | SMILES | growth inhibition [1] | pIC50 [2] | IC90 [2]
47 | Cc1cc(=O)[nH]c(=S)[nH]1 | -2.75% (inactive) |  | 
48 | CC1CCN(C(=O)C2CCN(c3nnc(-n4cccc4)s3)CC2)CC1 |  | 5.52 | 6.19 µM
49 | Cc1nc(SCC(N)=O)[nH]c(=O)c1C | 3% (inactive) |  | 
50 | Cc1ccc(NC(=O)COC(=O)CCc2c[nH]c3ccccc23)cc1[N+](=O)[O-] |  | 5.63 | 8.51 µM
51 | NC[C@H]1O[C@H](O[C@H]2[C@H](O)[C@@H](O[C@H]3O[C@H](CO)[C@@H](O)[C@H](N)[C@H]3O)[C@H](N)C[C@@H]2N)[C@H](O)[C@@H](O)[C@@H]1O |  | 5.75 | 2.42 µM
52 | Cc1cnc(SCC(=O)NC2CCCCC2)[nH]c1=O | -3.1% (inactive) |  | 
53 | CC[N+](C)(CC)CCCCOc1ccc2c(c1)C(=O)c1cc(OCCCC[N+](C)(CC)CC)ccc1-2 |  | 5.72 | 2.8 µM
54 | NC(=O)c1cnccn1 | 3.35% (inactive) |  | 
55 | Cc1nc(SCC(=O)NC2CCCC2)[nH]c(=O)c1C |  | 5.02 | 13.8 µM
56 | CCC(Sc1nc2c(c(=O)[nH]1)CCC2)C(=O)Nc1cccc(OC)c1 (stereo not given) | -0.59% (inactive) |  | 
57 | CCOC1OC(=O)C(Cl)=C1Nc1ccccc1C (stereo not given) |  | 5.53 | 5.98 µM
58 | CCC(Sc1nc2ccccc2c(=O)[nH]1)C(=O)Nc1cccc(OC)c1 (stereo not given) | -0.61% (inactive) |  | 
59 | O=C(CSc1nccc(=O)[nH]1)NC1CCCCC1 | -5.34% (inactive) |  | 
60 | CCOC(=O)CSc1nc(C)c(C)c(=O)[nH]1 | -0.94% (inactive) |  | 
61 | Nc1cc(=O)[nH]c(SCC(=O)NC2CCCCC2)n1 | 0.56% (inactive) |  | 
62 | CCSc1nc2ccccc2c(=O)[nH]1 | -0.83% (inactive) |  | 
63 | NNC(=O)c1ccncc1 |  | 6.51 | 0.46 µM
64 | CN(C(=O)CSc1nc2ccccc2c(=O)[nH]1)C1CCCCC1 | 2.63% (inactive) |  | 
65 | CCSc1nc(C)c(C)c(=O)[nH]1 | 3.43% (inactive) |  | 
66 | CC(Sc1nc2ccccc2c(=O)[nH]1)C(=O)NC1CCCCC1 (stereo not given) | -1.37% (inactive) |  | 
67 | O=c1[nH]c(SCc2ccccc2Cl)nc2c1CCCC2 | 0.45% (inactive) |  | 
